Laboratory results from ChEMBL document CHEMBL1201862, “PubChem BioAssay data set” (2004).
The source made the active and inactive calls.

Key:
[1] = cytotoxicity toward NIH3T3 fibroblasts, dose response, counter-screen, cell-based, ATP luminescence, mouse fibroblasts (AID 2010); format: functional;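 further: cells exposed to compound for about 90 hours before reading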
[2] = inhibitors of intracellular T. cruzi replication, confirmation, NIH3T3 host cells, beta-gal luminescence (AID 2044); format: functional, cell-based;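 further: intracellular parasites grown in NIH/3T3 mouse fibroblasts as host cells; luminescent beta-galactosidase reporter signal from transgenic T. cruzi replicating inside host cells; inhibitors lower the luminescence signal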
[3] = biological target: Cytochrome P450 2C19 (Homo sapiens, UniProt P33261); assay: Cytochrome panel assay with activity outcomes. Panel member name: p450-cyp2c19 Compounds with AC50 equal or less than 10 uM are considered active; format: functional
[4] = biological target: T1, Streptokinase A (Streptococcus pyogenes serotype M1, UniProt P10520); assay: S. pyogenes streptokinase expression inhibitors, potency, dose response, plasminogen activation absorbance, OD405 (AID 1914); format: functional, Streptococcus pyogenes M1 GAS;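 further: secreted streptokinase activity via plasminogen activation per viability signal from cell pellet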
T1 sequence (P10520 whole entry): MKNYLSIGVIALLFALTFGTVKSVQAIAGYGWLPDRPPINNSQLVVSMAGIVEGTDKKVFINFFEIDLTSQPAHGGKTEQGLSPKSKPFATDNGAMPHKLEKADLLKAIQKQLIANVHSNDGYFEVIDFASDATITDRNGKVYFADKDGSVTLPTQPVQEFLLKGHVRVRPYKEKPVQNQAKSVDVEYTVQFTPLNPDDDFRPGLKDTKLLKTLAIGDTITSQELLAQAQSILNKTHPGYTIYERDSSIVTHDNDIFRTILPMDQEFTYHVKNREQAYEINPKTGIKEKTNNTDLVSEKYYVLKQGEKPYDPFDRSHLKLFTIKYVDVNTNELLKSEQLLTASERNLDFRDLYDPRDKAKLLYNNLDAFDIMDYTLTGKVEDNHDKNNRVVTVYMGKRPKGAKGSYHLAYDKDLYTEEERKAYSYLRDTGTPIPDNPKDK

[5] = system: Streptococcus sp. 'group A'; assay: growth inhibition of control SK(-) GAS strain, dose response, counter-screen for streptokinase expression inhibitor project, luminescence, kanamycin, BacTiterGlo, confirmation (AID 1900); format: functional, organism-based
[6] = system: Streptococcus; assay: Group A Streptococcus viability loss, dose response, counter-screen for streptokinase expression inhibitor project, luminescence, BacTiterGlo (AID 1915); format: functional, organism-based;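 further: potency for reduction of bacterial viability or growth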

Sequence of Cytochrome P450 2C19 (P33261 whole entry): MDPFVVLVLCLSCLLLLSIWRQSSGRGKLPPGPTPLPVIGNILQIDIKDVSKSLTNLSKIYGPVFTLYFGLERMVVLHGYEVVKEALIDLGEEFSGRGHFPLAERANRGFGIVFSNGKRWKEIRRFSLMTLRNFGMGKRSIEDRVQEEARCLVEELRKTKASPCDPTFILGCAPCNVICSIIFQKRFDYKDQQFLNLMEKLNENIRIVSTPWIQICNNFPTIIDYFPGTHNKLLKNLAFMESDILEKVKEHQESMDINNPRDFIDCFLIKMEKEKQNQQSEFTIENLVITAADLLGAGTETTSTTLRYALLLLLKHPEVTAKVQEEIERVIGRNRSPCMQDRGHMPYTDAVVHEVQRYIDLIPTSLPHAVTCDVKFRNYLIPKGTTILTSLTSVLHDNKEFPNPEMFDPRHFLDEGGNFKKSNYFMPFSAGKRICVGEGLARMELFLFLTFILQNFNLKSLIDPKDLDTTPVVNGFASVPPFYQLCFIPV

Row | Structure (SMILES) | EC50 [4] | EC50 [5] | EC50 [6] | also measured
1 | Cc1ccc(C)c(NC(=S)N2CCC(c3nc4ccccc4s3)CC2)c1 |  |  |  | EC50 [1]: > 30 µM (not active); EC50 [2]: 3.67 µM (active)
2 | CCOC(=O)C1CN(S(=O)(=O)c2cccc(C(F)(F)F)c2)c2cc(CC(=O)OC)ccc2O1 (centres undefined) |  |  |  | AC50 ([3]; read-out: AC50): 0.282 µM (inconclusive)
3 | COc1ccc(C(C(=O)NC(C)(C)C)N(C(=O)CNC(=O)c2cccs2)c2ccc(C)cc2)cc1OC (centres undefined) |  |  |  | AC50 ([3]; read-out: AC50): 17.8 µM (inconclusive)
4 | COc1cc(CN2CCCC(C(=O)c3ccccc3SC)C2)cc(OC)c1 (centres undefined) |  |  |  | EC50 [1]: > 60 µM (not active); EC50 [2]: 0.557 µM (active)
5 | Cc1ccc(Cn2c(O)c(N=NC(S)=Nc3ccccc3F)c3ccccc32)cc1 |  |  |  | EC50 [1]: 17.4 µM (active); EC50 [2]: 0.886 µM (active)
6 | Nc1nc(Nc2ccc(Cl)cc2)nc(NCc2ccco2)c1[N+](=O)[O-] | > 150 µM (not active) | 7.12 µM (active) | 26.4 µM (inconclusive) | 
7 | CCCc1nnc(NC(=O)Cn2cnc3ccccc3c2=O)s1 |  |  |  | AC50 ([3]; read-out: AC50): 25.1 µM (inconclusive)
8 | Cc1cccc(OCCCCc2c(C)n[nH]c2C)c1C |  | 6.66 µM (active) | 17 µM (active) | 
9 | Cc1ccc(NC(=O)CCC(=O)NNS(=O)(=O)c2ccccc2)c(C)c1 |  |  |  | AC50 ([3]; read-out: AC50): 17.8 µM (inconclusive)
10 | CCn1ccnc1CN1CCc2c([nH]c3ccccc23)C1C1CCCCC1 (centres undefined) | 42.1 µM (active) | 5.53 µM (active) | 29.3 µM (active) | 
11 | O=C(NCc1ccccc1)C(=O)Nc1nc(-c2ccccc2)cs1 | > 150 µM (not active) | 5.38 µM (active) | 14.1 µM (active) | 
12 | N#Cc1c(N2CCOCC2)nc(N2CCCCC2)c2c1CCN(C1CCCCC1)C2 |  |  |  | EC50 [1]: > 30 µM (not active); EC50 [2]: 0.251 µM (active)
13 | CCN(CC)CCN(C(=O)CCS(=O)(=O)c1ccccc1)c1nc2cc3c(cc2s1)OCO3 |  |  |  | EC50 [1]: > 60 µM (not active); EC50 [2]: 0.794 µM (active)
14 | Cc1oc(-c2ccc(F)cc2)nc1CN(Cc1ccccn1)CC1CCCO1 (centres undefined) | > 150 µM (not active) | 30.4 µM (active) | > 150 µM (not active) | 
15 | CN(C)CCCN(C(=O)CCc1ccccc1)c1nc2c(F)cccc2s1 |  |  |  | EC50 [1]: > 30 µM (not active); EC50 [2]: 0.819 µM (active)
16 | CCOc1ccc(NC(=O)CC2C(=O)N(C)C(=S)N2CCCc2ccccc2)cc1 (centres undefined) |  |  |  | EC50 [1]: > 60 µM (not active); EC50 [2]: 2.4 µM (active)
17 | COc1ccccc1CN1CC(C(=O)NCc2ncccc2C)CCC1=O (centres undefined) | > 150 µM (not active) | > 150 µM (not active) | > 150 µM (not active) | 
18 | Cc1cccc(OCC(=O)Nc2ccc(C(=O)Nc3ccccc3C(=O)O)cc2)c1C | > 150 µM (not active) | 6.06 µM (active) | > 150 µM (not active) | 
19 | Cc1c(Br)c([N+](=O)[O-])nn1CC(=O)NCc1ccccn1 |  |  |  | AC50 [3]: inconclusive
20 | CO[C@@H]1COC(=O)[C@H]2CCCN2C(=O)C/C=C\[C@@H](C)[C@H](OC)COC(=O)[C@H]2CCCN2C(=O)C/C=C\[C@H]1C |  |  |  | AC50 [3]: inconclusive
21 | O=C(O)CCCCCCCCc1cn(Cc2ccc(C(=O)c3ccccc3)cc2)nn1 |  |  |  | EC50 [1]: 6.22 µM (active); EC50 [2]: > 60 µM (not active)
22 | Cc1ccccc1-c1cc(-c2ccccc2O)[nH]n1 |  | 9.25 µM (active) | > 150 µM (not active) | 
23 | Cc1ccccc1-c1cc(-c2ccccc2O)n[nH]1 | 66.2 µM (inconclusive) |  |  | 
24 | Cc1[nH]c(-c2ccc(F)cc2)cc1C(=O)N1CCN(c2cccc(Cl)c2)CC1 | > 150 µM (not active) | 3.8 µM (active) | 11.8 µM (active) | 
25 | CN(C)c1ccc(/C=C/c2c([N+](=O)[O-])c(=O)n(C)c(=O)n2C)cc1 | > 150 µM (not active) | 5.75 µM (active) | 18.3 µM (active) | 
26 | CC(C)Cn1c(=O)c(C(=O)N/N=C/c2cccc(F)c2)c(O)c2ccccc21 |  | 1.28 µM (active) | 3.69 µM (active) | 
27 | C/N=C(N)/N=C(\N)Nc1cc2ccccc2c2ccccc12 |  |  |  | AC50 ([3]; read-out: AC50): 3.98 µM (inconclusive)
